According to patent US20200002382A1, “Method for manufacturing oxytocin by liquid-phase polypeptide synthesis” (LANZHOU KAIBO PHARMACEUTICAL CO., LTD., priority 2017, published 2020):
Read-outs that look alike come from different tables or passages of the source.

Assays:
[1] = Biological value of the pure oxytocin product by the content determination method of the European Pharmacopoeia; settings: pure oxytocin from the liquid-phase synthesis; European Pharmacopoeia (version 8.0) content determination method, European Pharmacopoeia standards as standard materials; water and acetic acid removed
Text: In order to solve the problems existing in the present oxytocin synthesis technology, the invention provides a liquid-phase synthesis technique of oxytocin characterized by high productivity, low cost, safe environment, mild reaction conditions, high level of purity and biological value and great possibility for industrial production. The pure product of oxytocin provided by the invention has a content of 98.1% and a biological value of 588 IU/mg measured by the content determination method according to the European Pharmacopoeia (version 8.0).
Liquid contained oxytocin with purity above 99% is collected, concentrated at 25° C., desalted by PS polymer, concentrated, and freeze-dried to obtain the pure product of oxytocin (the HPLC image is shown in the attached drawings). The pure product of oxytocin provided by the invention has a content of 98.1% and a biological value of 588 IU/mg measured by the content determination method according to the European Pharmacopoeia, with the European Pharmacopoeia standards used as the standard materials. […]

[2] = Photaki synthesis: 1,2-diiodoethane disulfide formation, HBr/AcOH deprotection, purified product; cited from earlier work

## CC[C@H](C)[C@@H]1NC(=O)[C@H](Cc2ccc(O)cc2)NC(=O)[C@@H](N)CSSC[C@@H](C(=O)N2CCC[C@H]2C(=O)N[C@@H](CC(C)C)C(=O)NCC(N)=O)NC(=O)[C@H](CC(N)=O)NC(=O)[C@H](CCC(N)=O)NC1=O [oxytocin, Oxytocin]
[1]
  biological value: 588 IU/mg
[2]
  biological value: 380 IU/mg
